Experimental data published in patent publication US10238713B2, “Cyclic tetrapeptides and therapeutic applications thereof” (LODZ UNIVERSITY OF TECHNOLOGY, priority 2010, dated 2019).
Non-standard residues stand in square brackets, D forms with d. Residues, ends and D or L forms follow the SMILES beside them. *: point of attachment. Bip = N[C@@H](Cc1ccc(-c2ccccc2)cc1)C(=O)O; β3hW = N[C@H](CC(=O)O)Cc1c[nH]c2ccccc12; Phe(4-F) = N[C@@H](Cc1ccc(F)cc1)C(=O)O; Phe(4-I) = N[C@@H](Cc1ccc(I)cc1)C(=O)O; hPhe = N[C@@H](CCc1ccccc1)C(=O)O; β3hF = N[C@H](CC(=O)O)Cc1ccccc1; tBu = CC(C)(C)*

Key:
[1] = Solubility in the aqueous culture medium; type: physicochemical
Protocol: RPMI-1640 medium (Cibi/Life Technologies, UK), fetal calf serum (FCS, Gibco), DMSO, phytohemagglutinin A (PHA), lipopolysaccharide (LPS) from E. coli strain O111:B4 (Sigma), […]-2,5-diphenyltetrazolium bromide (MTT), SDS and DMF (Sigma). The culture medium consisted of RPMI-1640, 10% addition of FCS, L-glutamine, sodium pyruvate, 2-mercaptoetanol and antibiotics (streptomycin and penicillin). Cyclic tetrapeptides were initially dissolved in DMSO (5 mg/ml), the dissolved in the culture medium to the desired concentration.
The effects of the peptides on PMBC survival in 24h culture are presented in FIGS. 8A, 8B, 8C, 8D, 8E and 8F. Peptide 4B8M (compound I-A) was included as a reference compound. Appropriate dilutions of DMSO were added to control cultures. […] In the figures, P01=compound I-D, P02=compound I-E, P03=compound I-F, P04=compound I-G, P05=compound I-H, P06=compound I-J, P07=compound I-K, P08=compound I-L, P10a=compound I-M, P10b=compound I-N, P11=compound I-O, P21=compound I-R, P-21b=compound I-Q, P22=compound I-S, P23-2=compound I-U, P24=compound I-V, P25=compound I-X, P25-i=compound I-W, P26=compound I-Y, P27=compound I-Z, P28=compound I-AA, P29=compound I-AB, P30=compound I-AC, P31=compound I-AD, P32=compound I-AE, P33=compound I-AG, P33-b=compound I-AF, P34=compound I-AH, P35=compound I-AI, P00S-b=compound I-AJ, SP00-b=compound I-AL.

[2] = test system: human PBMC; experiment: Toxicity test: PBMC survival in 24 h culture (MTT); details: ANOVA, FIGS. 8A-8F (4B8M repeated per figure)
Protocol: (§2) PBMC were isolated by centrifugation on Ficoll-uropoline gradient (density 1.077 g/ml) (Lymphoprep; PAA Laboratories), at 800×g for 20 min at 4° C. The interphase cells, consisting of lymphocytes (20%) and monocytes (80%) were then washed three times with Hanks' medium and re-suspended in the culture medium at density of 2×10^6 cells/ml.
Appropriate dilutions of DMSO in RPMI 1640 medium were used as controls. Cell survival was determined by the MTT colorimetric method (Hansen et al., J. Immunol. Methods, 1989, pp. 203-210). The data are presented as a mean OD value from quadriplicate wells ±standard error (SE). The cultures “Control (−)” contained only cells in the culture medium.
The assay was performed per Hansen et al., J. Immunol. […] Briefly, 25 μl of MTT (5 mg/ml) stock solution was added per well at the end of cell incubation and the plates were incubated for 3 h in a cell culture incubator. Then, 100 μl of the extraction buffer (20% SDS with 50% DMF, pH 4.7) was added. After additional overnight incubation, the optical density was measured at 550 nm (Dynatech 5000).

[3] = test system: mice, carrageenan-induced foot pad edema; experiment: Carrageenan-induced foot-pad edema test; type: in vivo, mouse; details: 4 h after carrageenan; peptides 250 μg i.p., DEX 25 μg i.p., 30 min before; FIGS. 17A-17C
Protocol: (§1) In this and the air-pouch test, 1.5 mg peptide was dissolved in 300 μl of DMSO, then in 0.9% NaCl to achieve the desired dose (250 μg/0.2 ml or 100 μg/0.2 ml). Carrageenan (Sigma) was dissolved in 0.9% aqueous NaCl (overnight). 50 μl of 2% carrageenan solution was injected intradermally into hind foot pads. The peptides were given in a single 250 μg dose (0.2 ml) per mouse intraperitoneally (i.p.), 30 min before carrageenan administration. Dexamethasone (DEX) (Dexaven, Polfa, Poland), a reference drug, was given i.p. in dose 25 μg per mouse. Control mice were administered i.p. appropriately diluted solvent (DMSO in aqueous NaCl) instead of peptides. The foot pads of “background” (BG) mice were injected with 50 μl of 0.9% aqueous NaCl. Foot pad edema was measured with a spring caliper, 2 h, 3 h and 4 h after administration of carrageenan. The results are presented in FIGS. 17A, 17B and 17C as mean values of the antigen-specific increase of the foot pad thickness measured in 5 mice in each experimental group and expressed in mm ±SE (only results from measurements 4 h following administration of carrageenan are presented in figures). Statistics: FIG. 17A: Control vs: DEX P=0.0001; 4B8M P=0.0001; P25 NS (P=1.0000); P28 NS (P=1.0000); P31 NS (P=0.0528); P35 P=0.0008 (ANOVA of Kruskal-Wallis); FIG. 17B: Statistics: Control vs: P22 NS (P=1.0000); P26 NS (P=1.0000); P27 P=0.0050; P30 P=0.0004; P33-b NS (P=1.0000); SP00-b P=0.0001; P00S-b NS (P=1.0000) (ANOVA of Kruskal-Wallis); FIG. 17C: Statistics: Control vs: P21 P=0.0147; P23-2 P=0.0083; P24 P=0.0001; P29 NS (P=0.9999); P32 P=0.0001; P33 NS (P=0.6806); P34 NS (P=0.1920) (ANOVA).

[4] = test system: PHA-induced proliferation of human peripheral blood mononuclear cells (PBMC); experiment: Proliferative response of PBMC to PHA (MTT); type: cell-based; details: four-day incubation, FIGS. 9A-9F
Protocol: as §2
The isolated PBMC were distributed into 96-well flat-bottom plates in 100 μl aliquots (2×10^5 cells/well). PHA was used at concentration of 5 μg/ml. The compounds were tested at concentrations of 1, 10 and 100 μg/ml. DMSO at appropriate dilutions served as control. After a four-day incubation in a cell culture incubator, the proliferative response of cells was determined by the colorimetric MTT method (Hansen et al., J. Immunol. Methods, 1989, pp. 203-210). The data are presented as a mean OD value from quadriplicate wells ±standard error (SE). The cultures “Control (−)” contained no mitogen (PHA). The cultures “Control (PHA)” contained PHA but not cyclic tetrapeptides.
Briefly, 25 μl of MTT (5 mg/ml) stock solution was added per well at the end of cell incubation and the plates were incubated for 3 h in a cell culture incubator. Then, 100 μl of the extraction buffer (20% SDS with 50% DMF, pH 4.7) was added. After additional overnight incubation, the optical density was measured at 550 nm (Dynatech 5000).

[5] = test system: mice, carrageenan air pouch; experiment: Carrageenan air-pouch test (exudate cell number); type: in vivo, mouse; details: peptides 100 μg i.p. one hour before carrageenan, 24 h; FIGS. 18A-18B
Protocol: as §1
Air pouches were formed by subdermal injection into the dorsal region (in a halothane anesthesia) of 5 cm^3 of air (needle 23G x 11/4, 5 ml syringe). On day 3 the air pouches were given an additional 2 ml of air and an inflammatory process was elicited by an intra-pouch injection of 1% of carrageenan in 0.5 ml of 0.9% aqueous NaCl. The peptides were given i.p. at a dose of 100 μg one hour before carrageenan injection into the air pouch. The mice from the “background” (BG) group were given 0.9% aqueous NaCl i.p. and 0.9% aqueous NaCl into the air pouches. Control mice were given appropriately diluted DMSO i.p. and carrageenan into the air pouches. 24 h after carrageenan injection, the mice were sacrificed by cervical dislocation, the air pouches were supplemented with 1 ml of 0.9% aqueous NaCl and the exudates from the air pouches were aspirated using a syringe. The exudates were diluted with 0.9% aqueous NaCl and the cells were counted in a Bürker hemocytometer. Data are presented in FIGS. 18A and 18B as the mean values from 10 mice/group (cell number×10^6 per mouse) ±SE. Then the cells were centrifuged and 0.1 ml of the supernatant was saved for TNF-α determination (see Determination of TNF-α activity, above). The cell pellets were used to perform smears on microscopic glasses, which were stained with Giemsa and May-Grünwald reagents for evaluation of mast cell degranulation. Cell analysis was performed by a histologist using a light microscope and 1000× magnification. The content of intact and degranulated mast cells is given in percentage (mean values from 10 mice/group) ±SE. Statistics: FIG. 18A: BG vs Control P=0.0000; Control vs: DEX P=0.0034; 4B8M P=0.0005; P22 NS (P=0.7275); P26 P=0.0032; P27 NS (P=0.0659); P35 NS (P=1.0000) (ANOVA of Kruskal-Wallis); FIG. 18B: Control vs: P21 NS (P=0.322); P23-2 P=0.0020; P24 P=0.0001; P25 P=0.0418; P28 NS (P=0.3502); P29 NS (P=0.0582); P30 P=0.0006; P31 P=0.0078; P32 P=0.0340; P33 NS (P=0.9993); P34 NS (p=0.0566) (ANOVA).

[6] = test system: splenocytes; experiment: Toxicity test on splenocytes (24 h, MTT); type: cell-based, mouse; details: 100 μg/ml (printed 100 μg/m for I-C)
Protocol: Cell survival was determined by MTT colorimetric method. The results were presented as mean optical density (OD) at 550 nm from 4 wells. The viability of cells in respective compound concentrations was compared to appropriate DMSO control groups (100% survival), corresponding to respective compound concentrations.

[7] = test system: concanavalin A-induced mouse splenocyte proliferation; experiment: Proliferative response of splenocytes to concanavalin A (MTT); type: cell-based
Protocol: Spleens were pressed against a plastic screen into 0.83% NH4Cl solution to lyse erythrocytes (5 min incubation at room temperature). The cells were then washed twice with Hanks' medium, passed through glass wool column to remove debris, and re-suspended in the culture medium, referred to below as the “culture medium”, consisting of RPMI-1640, supplemented with 10% of fetal calf serum, L-glutamine, sodium pyruvate, 2-mercaptoethanol, streptomycin and penicillin (100 μg/ml). The cells were then distributed into 96-well flat-bottom tissue culture plates (Nunc) at a density of 2×10^5 cells/100 μl/well. Con A (2.5 μg/ml) was added to induce cell proliferation. The compounds were added to the cultures at doses of 1-100 μg/ml. After a three-day incubation, cell proliferation was determined using the colorimetric MTT method (Hansen M B, J Immunol Methods, 1989, 119, 203-210). The results were presented as the mean optical density (OD) at 550 nm ±SE from quadriplicate determinations (wells).

CC(C)(C)OC[C@@H]1NC(=O)[C@@H]2CCCN2C(=O)[C@H](Cc2ccccc2)NC(=O)C[C@H](Cc2ccccc2)NC1=O [I-AJ] (cyclo(FPS(tBu)[β3hF]))
solubility in the aqueous culture medium [1]: incomplete solubility | PBMC survival, P vs DMSO at appropriate dilution ([2]; 10 μg/ml): 0.9962 | PBMC survival, P vs DMSO at appropriate dilution ([2]; 100 μg/ml): 0.9250 | foot pad edema (increase of foot pad thickness), P vs Control [3]: 1.0000 | PHA-induced PBMC proliferation, P vs DMSO at appropriate dilution ([4]; 10 μg/ml): 1.0000 | PHA-induced PBMC proliferation, P vs DMSO at appropriate dilution ([4]; 100 μg/ml): 0.7035

O=C1C[C@H](Cc2ccccc2)NC(=O)[C@@H]2CCCN2C(=O)[C@@H]2CCCN2C(=O)[C@H](Cc2ccc(F)cc2)N1 [I-X] (cyclo(PP[β3hF][Phe(4-F)]))
solubility in the aqueous culture medium [1]: incomplete solubility | PBMC survival, P vs DMSO at appropriate dilution ([2]; 10 μg/ml): 0.8597 | PBMC survival, P vs DMSO at appropriate dilution ([2]; 100 μg/ml): 0.0001 | air pouch exudate cell number, P vs Control [5]: 0.0418 | foot pad edema (increase of foot pad thickness), P vs Control [3]: 1.0000 | PHA-induced PBMC proliferation, P vs DMSO at appropriate dilution ([4]; 100 μg/ml): 1.0000

O=C1C[C@H](Cc2ccccc2)NC(=O)[C@@H]2CCCN2C(=O)[C@@H]2CCCN2C(=O)[C@H](Cc2ccc(I)cc2)N1 [I-W] (cyclo(PP[β3hF][Phe(4-I)]))
solubility in the aqueous culture medium [1]: incomplete solubility | PBMC survival, P vs DMSO at appropriate dilution ([2]; 10 μg/ml): 0.9992 | PBMC survival, P vs DMSO at appropriate dilution ([2]; 100 μg/ml): 0.9602 | PHA-induced PBMC proliferation, P vs DMSO at appropriate dilution ([4]; 10 μg/ml): 0.0001 | PHA-induced PBMC proliferation, P vs DMSO at appropriate dilution ([4]; 100 μg/ml): 0.0001

O=C1C[C@H](Cc2ccccc2)NC(=O)[C@@H]2CCCN2C(=O)[C@@H]2CCCN2C(=O)[C@H](CCc2ccccc2)N1 [I-AI] (cyclo(PP[β3hF][hPhe]))
solubility in the aqueous culture medium [1]: incomplete solubility | PBMC survival, P vs DMSO at appropriate dilution ([2]; 10 μg/ml): 0.0222 | PBMC survival, P vs DMSO at appropriate dilution ([2]; 100 μg/ml): 1.0000 | air pouch exudate cell number, P vs Control [5]: 1.0000 | foot pad edema (increase of foot pad thickness), P vs Control [3]: 0.0008 | PHA-induced PBMC proliferation, P vs DMSO at appropriate dilution ([4]; 100 μg/ml): 1.0000

O=C1C[C@H](Cc2ccccc2)NC(=O)[C@@H]2CCCN2C(=O)[C@@H]2CCCN2C(=O)[C@H](Cc2ccc(-c3ccccc3)cc2)N1 [I-AH] (cyclo([Bip]PP[β3hF]))
solubility in the aqueous culture medium [1]: incomplete solubility | PBMC survival, P vs DMSO at appropriate dilution ([2]; 10 μg/ml): 0.0005 | PBMC survival, P vs DMSO at appropriate dilution ([2]; 100 μg/ml): 0.0001 | air pouch exudate cell number, P vs Control [5]: 0.0566 | foot pad edema (increase of foot pad thickness), P vs Control [3]: 0.1920 | PHA-induced PBMC proliferation, P vs DMSO at appropriate dilution ([4]; 100 μg/ml): 0.001861

O=C1C[C@H](Cc2c[nH]c3ccccc23)NC(=O)[C@@H]2CCCN2C(=O)[C@@H]2CCCN2C(=O)[C@H](Cc2ccccc2)N1 [I-AE] (cyclo(FPP[β3hW]))
solubility in the aqueous culture medium [1]: incomplete solubility | PBMC survival, P vs DMSO at appropriate dilution ([2]; 10 μg/ml): 0.9954 | PBMC survival, P vs DMSO at appropriate dilution ([2]; 100 μg/ml): 0.9984 | air pouch exudate cell number, P vs Control [5]: 0.0340 | foot pad edema (increase of foot pad thickness), P vs Control [3]: 0.0001 | PHA-induced PBMC proliferation, P vs DMSO at appropriate dilution ([4]; 10 μg/ml): 0.0127 | PHA-induced PBMC proliferation, P vs DMSO at appropriate dilution ([4]; 100 μg/ml): 0.0023

O=C1N[C@@H](Cc2ccccc2)CC(=O)N2CCC[C@H]2C(=O)N2CCC[C@H]2C(=O)N[C@H]1Cc1ccccc1 [I-B] (cyclo(F[β3hF]PP))
toxicity to splenocytes [6]: 30% | effect on concanavalin A-induced splenocyte proliferation ([7]; 100 μg/ml): weak antiproliferative effect | effect on concanavalin A-induced splenocyte proliferation ([7]; lower concentrations (below 100 μg/ml)): no such effect was observed
